Patent publication US12295997B2, “Prostate neoantigens and their uses” (Janssen Biotech, Inc., priority 2020, dated 2025)

B1: P19 (peptide, listed as Homo sapiens)
chain: WTPIPVLTRWPLPHPPPWRRATSCRMARSSPSATSGSSVRRRCSSLPSWVWNLAASTRPRSTPS

Test system: CD8+ and CD4+ T cells (autologous CD3+ Pan-T cells isolated from human normal PBMCs)
Assay: Exogenous autologous normal donor restimulation assay (15-mer overlapping peptide pools on CD1c+ dendritic cells, TNFα/IFNγ flow cytometry)
Type: cell-based
Settings: 15-mer overlapping peptide pool; for Maximum Fold Change Over Background CD4+ cells / Maximum Fold Change Over Background CD8+ cells / Maximum Frequency of TNFα/IFNγ Double Positive CD4+ T cells / Maximum Frequency of TNFα/IFNγ Double Positive CD8+ T cells: Table 25; for Maximum Fold Change Over Background CD4+ cells: TNFα+IFNγ+ CD4+ T cells; for Maximum Fold Change Over Background CD4+ cells / Maximum Fold Change Over Background CD8+ cells: highest fold change over negative control across normal donors; for Maximum Fold Change Over Background CD8+ cells: TNFα+IFNγ+ CD8+ T cells; for Maximum Frequency of TNFα/IFNγ Double Positive CD4+ T cells / Maximum Frequency of TNFα/IFNγ Double Positive CD8+ T cells: highest frequency across normal donors
Procedure, shortened: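 Readout was intracellular TNFα/IFNγ flow cytometry on live CD3+ CD8+ and CD4+ cells after day-11 peptide restimulation. Stimulators were CD1c+ dendritic cells loaded with overlapping 15-mer peptide pools (2.5–10 μg/mL), irradiated, and cultured 12 days with autologous normal-donor Pan-T cells plus IL-15/IL-2. A response counted when ≥3-fold over DMSO control and at least 0.01%.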

[1] = Table 28, additional neoantigens, highest across normal donors

Molecule | Maximum Fold Change Over Background CD4+ cells | Maximum Fold Change Over Background CD8+ cells | Maximum Frequency of TNFα/IFNγ Double Positive CD4+ T cells | Maximum Frequency of TNFα/IFNγ Double Positive CD8+ T cells | Max. Fold Change over background CD4+ TNFαINFγ double positive DP [1] | Max. Fold Change over background CD8+ TNFαINFγ double positive DP [1] | Max. Frequency of CD4+ TNFαINFγ DP [1] | Max. Frequency of CD8+ TNFαINFγ DP [1]
SLYHREKQLIAMDSAI (listed as Homo sapiens) [Neoantigen P22] | 18.16 | 1.56 | 0.075 | 0.025 | – | – | – | –
YEAGMTLGEKFRVGNCKHLKMTRP (listed as Homo sapiens) [Neoantigen P82] | 4.44 | 2.92 | 0.17 | 0.09 | – | – | – | –
YEAGMTLGGKILFFLFLLLPLSPFSLIF (listed as Homo sapiens) [Neoantigen P87] | 7.86 | 9.20 | 0.110 | 0.460 | – | – | – | –
B1 | – | – | – | – | 6.67 | 4.76 | 0.16 | 0.15
